From patent US20060019320A1, “Wnt mediated erbb signalling, compositions and uses related thereto” (priority 2002, published 2006)

What was measured:
cyclin D2 = test: Cyclin D2 immunoblot in HC11 cells; format: cell-based, mouse; conditions: Wnt-HC11 cells treated 6 hr
Experimental: Briefly, WCL was prepared from HC11, Wnt1- and Wnt5a-expressing HC11 cells and 50 μg immunoblotted essentially as described above using commercially available antibodies against cyclin D1 (NovaCastra) or cyclin D2 (SantaCruz). Both Wnt1- and Wnt5a-HC11 cells express higher levels of cyclin D1, in comparison to HC11 cells. In addition, Wnt1-HC11 cells but not C- or Wnt5a-HC11 cells express cyclin D2. C-HC11 cells were also treated 6 hrs with CM from Wnt-HC11 cells. WCL were prepared and 50 μg was immunoblotted for Cyclin D1 or Cyclin D2. Similar to the results with the Wnt-HC11 cell lines, both Wnts (CM) stimulated Cyclin D1 expression, while only Wnt1 enhanced cyclin D2 levels. To assess the contribution of Wnt-transactivated ErbB1 on cyclin D1 and D2 expression, C- and Wnt-HC11 cells were treated 6 hr with PKI166 or CGS27023A or EGF. […] In contrast, the ErbB1 inhibitor had no effect on cyclin D2 levels. […] Thus, cyclin D1 and cyclin D2 are differentially controlled. Both Wnt1 and Wnt5a transactivate ErbB1, which results in increased expression of cyclin D1; in contrast cyclinD2 is only elevated in Wnt1 expressing cells and this is independent of ErbB1 activity.

cyclin D1 = test: Cyclin D1 immunoblot in HC11 cells; format: cell-based, mouse; conditions: Wnt1- and Wnt5a-HC11 cells treated 6 hr
Experimental: Briefly, WCL was prepared from HC11, Wnt1- and Wnt5a-expressing HC11 cells and 50 μg immunoblotted essentially as described above using commercially available antibodies against cyclin D1 (NovaCastra) or cyclin D2 (SantaCruz). Both Wnt1- and Wnt5a-HC11 cells express higher levels of cyclin D1, in comparison to HC11 cells. In addition, Wnt1-HC11 cells but not C- or Wnt5a-HC11 cells express cyclin D2.
C-HC11 cells were also treated 6 hrs with CM from Wnt-HC11 cells. WCL were prepared and 50 μg was immunoblotted for Cyclin D1 or Cyclin D2. Similar to the results with the Wnt-HC11 cell lines, both Wnts (CM) stimulated Cyclin D1 expression, while only Wnt1 enhanced cyclin D2 levels.
To assess the contribution of Wnt-transactivated ErbB1 on cyclin D1 and D2 expression, C- and Wnt-HC11 cells were treated 6 hr with PKI166 or CGS27023A or EGF. […] In contrast, the ErbB1 inhibitor had no effect on cyclin D2 levels. […] Thus, cyclin D1 and cyclin D2 are differentially controlled. Both Wnt1 and Wnt5a transactivate ErbB1, which results in increased expression of cyclin D1; in contrast cyclinD2 is only elevated in Wnt1 expressing cells and this is independent of ErbB1 activity.

ERK1/2 = test: phospho-ERK1/2 immunoblot (MAPK activity) in HC11 cells; format: cell-based, mouse; conditions: for ability of the Wnt proteins to stimulate ERK1/2 activity: C-HC11 pretreated 1 hr with inhibitor, then Wnt CM for 10 minutes
From the text: The MAPK and PI3K pathways are major signaling cascades downstream of activated ErbB receptors (Olayioye et al., 2000). Antisera specific for the active, phosphorylated forms of ERK1/2 and PKB, the major kinases on the respective pathways, were used to probe for their activity. 50 micrograms of WCL were immunoblotted essentially as described above with the exception that a phospho-ERK1/2 antibody (commercially available, New England Biolabs) or a phosphoPKB antibody was used. Membranes were stripped and reprobed for ERK1/2 (anti-p44/42 ERK, New England Biolabs).
Briefly, conditioned media (CM) from Wnt-HC11 cells prepared as described in Example 1 was tested for its effect on ErbB1 and MAPK activity, essentially as described above. Treatment of C-HC11 cells for 10 min with Wnt1- and Wnt5a-CM stimulated phospho-ERK1/2 levels 5-6-fold, whereas CM from C-HC11 cells had no effect.
To rule out the potential involvement of ErbB1 ligands in mediating the effects of Wnt-containing CM, we used secreted Frizzled-related protein-1 (sFRP-1), which binds Wnt preventing it from binding Fz (Uren et al., 2000). CM from human embryonic kidney (HEK293) cells stably expressing the sFRP1 expression vector or control HEK 293 cells was premixed 1 hr with Wnt-containing CM (1:1) before adding to C-HC11 cultures for 10 min. Simultaneous addition of CM from sFRP1-producing 293 cells with Wnt-containing CM prevented Wnt1 and Wnt5a from increasing phospho-ERK1/2 levels, showing that sFRP1 blocks Wnt signalling through Fz to ErbB1. As a control, the cells were also treated for 10 minutes with EGF in the presence of sFRP1.
To test for a role of metalloproteinases in Wnt-expressing HC11 cells, two metalloproteinase inhibitors were used, namely phenanthroline (Calbiochem), a metal ion chelator, or CGS27023A, an enzymatic inhibitor (Wang et al., 1999). Cells were treated for 1 hour with phenathroline, CGS27023A, (both at 50μM) or DMSO carrier. ErbB1 was immunoprecipitated from 500 micrograms WCL and immunoblotted with a phosphotyrosine specific antibody, essentially as described above. Membranes were stripped and reprobed for ErbB1. ERK1/2 was probed from 50 micrograms of WCL, immunoblotted with a phospho-ERK1/2 antibody, essentially as described above. Membranes were stripped and reprobed for ERK1/2.
The metalloproteinase inhibitors were next tested in the presence of Wnt-containing CM. C-HC11 cultures were pretreated 1 hr with metalloproteinase inhibitors before treatment with CM from C- or Wnt-HC11 cells for 10 minutes. Phospho-ERK1/2 levels were determined as above. Phenanthroline and CGS 27023A each blocked the ability of the Wnt proteins to stimulate ERK1/2 activity in C-HC11 cells. Similar results were obtained with HC11 cells constitutively expressing the Wnt proteins. Thus, Wnt-mediated activation of ErbB1 and ERK is dependent on a metalloproteinase activity.

ErbB1 = biological target: T1, ErbB1 (Mus musculus, UniProt Q01279); test: ErbB1 immunoprecipitation and phosphotyrosine immunoblot in HC11 cells; format: cell-based; conditions: Wnt-HC11 cells, 5 microM for 1 hr
T1 construct: endogenous in cells; host or cells: HC11 mammary cells (C-HC11, Wnt1-HC11, Wnt5a-HC11)
Experimental: ErbB1 is transactivated by many classes of membrane proteins (Carpenter, 1999; Gschwind et al., 2001). However, Wnt/VFz-mediated activation of ErbB1 has not been reported previously. Since ErbB1 tyrosine phosphorylation is an essential step in ErbB1 activation, we examined whether Wnt can activate ErbB1, by immunoprecipitating the receptor form Wnt/HC11 cells and performing a Westem analysis with phosphotyrosine specific antiserum. For these experiments HC11 cells were grown over night in medium without EGF. As a control for ErbB1 activation, C-HC 11 and Wnt-HC11 cells were treated for 10 minutes with 100 ng/ml EGF. An ErbB1 selective kinase inhibitor PKI166 (Traxler et al., 2001) was also used in some experiments. For this, the cells were pretreated 1 hr with 5 microM PKI 166, or left untreated, before preparing WCLs, essentially as described in Example 1.
ErbB1 was immunoprecipitated from 500 micrograms WCL and immunoblotted with a phosphotyrosine specific antibody (anti-phosphotyrosine AG10, Upstate Biotechnology) essentially as described previously (Lane et al., 2000). Membranes were stripped by placing them in 2% SDS, 62.5 mM Tris pH 6.8, 100 mM beta-mercaptoethanol at 60° C. for 30 min. Stripped membranes were reprobed for ErbB1 using a commercially available antibody (antibody 1005,Santa Cruz Biotechnology). […]

T1 sequence (Q01279 25-1210): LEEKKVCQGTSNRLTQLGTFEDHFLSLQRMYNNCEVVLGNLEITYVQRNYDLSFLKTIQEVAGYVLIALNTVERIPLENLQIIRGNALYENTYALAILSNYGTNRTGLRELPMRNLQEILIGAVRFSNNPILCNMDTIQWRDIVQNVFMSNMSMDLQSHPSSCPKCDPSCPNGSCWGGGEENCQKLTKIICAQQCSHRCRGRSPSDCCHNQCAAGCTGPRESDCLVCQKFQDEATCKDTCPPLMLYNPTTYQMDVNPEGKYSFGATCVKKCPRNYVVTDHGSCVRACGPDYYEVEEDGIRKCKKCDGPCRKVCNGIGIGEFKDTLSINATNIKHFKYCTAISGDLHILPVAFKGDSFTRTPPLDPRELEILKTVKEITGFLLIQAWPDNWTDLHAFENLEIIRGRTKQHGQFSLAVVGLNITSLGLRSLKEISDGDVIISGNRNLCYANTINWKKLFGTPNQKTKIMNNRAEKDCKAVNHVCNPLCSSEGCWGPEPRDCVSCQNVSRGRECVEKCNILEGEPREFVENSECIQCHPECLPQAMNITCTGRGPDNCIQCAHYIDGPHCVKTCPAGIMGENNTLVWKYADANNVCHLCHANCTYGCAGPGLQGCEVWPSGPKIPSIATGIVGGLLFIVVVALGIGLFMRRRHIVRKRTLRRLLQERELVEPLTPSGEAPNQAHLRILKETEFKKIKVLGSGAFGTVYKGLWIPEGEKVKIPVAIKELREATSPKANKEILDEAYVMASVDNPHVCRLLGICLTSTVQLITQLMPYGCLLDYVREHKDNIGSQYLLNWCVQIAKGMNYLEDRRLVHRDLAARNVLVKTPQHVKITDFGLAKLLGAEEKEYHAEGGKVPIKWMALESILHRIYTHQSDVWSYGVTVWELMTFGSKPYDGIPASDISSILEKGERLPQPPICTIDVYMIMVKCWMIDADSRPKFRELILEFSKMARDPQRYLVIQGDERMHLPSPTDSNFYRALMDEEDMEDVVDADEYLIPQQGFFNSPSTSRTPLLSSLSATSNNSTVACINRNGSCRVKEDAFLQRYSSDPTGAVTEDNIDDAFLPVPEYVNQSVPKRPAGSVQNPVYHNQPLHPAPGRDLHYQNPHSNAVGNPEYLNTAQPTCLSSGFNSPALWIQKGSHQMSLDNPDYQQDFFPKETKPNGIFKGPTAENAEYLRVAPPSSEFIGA

| decrease of ErbB1's phosphotyrosine level (ErbB1) | Compound | cyclin D2 levels (cyclin D2) | cyclin D1 level (cyclin D1) | ability of Wnt-containing CM to stimulate phospho-ERK1/2 levels (ERK1/2; C-HC11 cells pre-treated for 1 hour with inhibitor) | EGF induction of MAPK activity (ERK1/2; C-HC11 cells, pretreatment with inhibitor) | constitutive level of phospho-ERK1/2 (ERK1/2; Wnt-expressing HC11 cells) | ability of the Wnt proteins to stimulate ERK1/2 activity (ERK1/2) |
| --- | --- | --- | --- | --- | --- | --- | --- |
| approximately 50% | C[C@@H](Nc1ncnc2[nH]c(-c3ccc(O)cc3)cc12)c1ccccc1 [PKI166] | no effect | reduced cyclin D1 to the control level | blocked | prevented | reduced the constitutive level of phospho-ERK1/2 to basal | – |
| – | COc1ccc(S(=O)(=O)N(Cc2cccnc2)[C@@H](C(=O)NO)C(C)C)cc1 [CGS27023A] | – | decreased expression | – | – | – | blocked |
| – | c1cnc2c(c1)ccc1cccnc12 [Phenanthroline, phenanthroline] | – | – | – | – | – | blocked |
